Data from US20120251442A1, “Methods for Treatment of Tumors by Direct Administration of a Radioisotope” (GABRIEL INSTITUTE, INC., priority 2007, published 2012).

Assay: Radioisotope delivered into a drilled hole in the femur, tissue counting at two hours
Assay type: in vivo, Sprague Dawley rat
Experimental: A miniature drill was used to create a hole in the femur of an anesthetized Sprague Dawley rat. A miniature pump was used to deliver 3 μL of this Ho-166 composition into the hole created by the drill.
Two hours after the injection of the dose the rat was sacrificed and dissected. Tissues/organs excised and counted included bone (opposite femur), liver, kidneys, spleen, muscle, blood, heart, lung, pancreas as well as the injected femur. Counting was done by the use of a NaI gamma detector to determine the presence of radioactivity.
The amount of activity found in the site of injection was 92% of the injected dose. Less than 2% of the dose was found in the liver or in the rest of the bone. Total skeletal dose was determined by multiplying the % dose in the opposite femur by 25.
Ho-166 in 0.1M HCl was obtained from MURR. The pH was measured with pH paper showing a pH of about 1. The miniature drill described above in Example 6 was used to create a hole in the femur of an anesthetized Sprague Dawley rat. The miniature pump described above was used to deliver 3 μL of Ho-166 solution into the hole created by the drill. Two hours after the injection of the dose the rat was sacrificed and dissected. The amount of activity found in the site of injection was 5% of the injected dose. However 52% of the dose was found in the liver and 23% of the dose was found in the rest of the bone. Total skeletal dose was determined by multiplying the % dose in the opposite femur by 25.
The miniature drill described in Example 6 was used to create a hole in the femur of an anesthetized Sprague Dawley rat. The miniature pump described in Example 6 was used to deliver 2 μL of Sm-153-DOTMP solution into the hole created by the drill. Two hours after the injection of the dose the rat was sacrificed and dissected. The amount of activity found in the site of injection was 9% of the injected dose. None of the radioactivity was found in the liver and about 20% was found in the rest of the bone. Total skeletal dose was determined by multiplying the % dose in the opposite femur by 25. An average of 65% of the injected dose was found in the urine.

[1] = two hours after injection into femur hole

SMILES: O=P([O-])(O)CN1CCN(CP(=O)([O-])O)CCN(CP(=O)(O)O)CCN(CP(=O)([O-])O)CC1.[153Sm+3] [Sm-153-DOTMP]
- Activity found in the site of injection, % of the injected dose [1]: 9%
- Dose found in the liver [1]: None
- Injected dose found in the urine [1]: 65%
- Dose found in the rest of the bone (two hours after injection, % dose in opposite femur multiplied by 25): about 20%
